Literature values in patent publication US6335036B1, “Granular pharmaceutical preparation of ebselen” (Daiichi Pharmaceutical Co., Ltd., priority 1996, dated 2002).

Details: known property, background art

Solubility in water: slightly soluble in water
Structure (SMILES): O=c1c2ccccc2[se]n1-c1ccccc1 [Ebselen, 2-phenyl-1,2-benzisoselenazol-3(2H)-one]
